Results on ten molecules are retold here after paper PMC12548382, “Discovery of a potent covalent inhibitor that unusually distorts the catalytic dyad of SARS-CoV-2 main protease” (Journal of Virology, 2025).

In general, IC50 refers to the midpoint of a concentration-inhibition curve.

One assay has as its system SARS-CoV-2. In words: SARS-CoV-2 viral load reduction assay in VeroE6 cells. It counts as cell-based. The note with it: 10 µM, MOI 0.1, 48 hpi, qRT-PCR of supernatant. How it is done: Fig 3 In vitro antiviral activity of selected compounds. VeroE6 cells were infected with SARS-CoV-2 (multiplicity of infection [MOI] of 0.1) and treated with various concentrations of H102, PF-07321332, GC376, or vehicle control. Viral RNA load in the cell culture supernatant samples was quantified by qRT-PCR. All experiments were performed in triplicate, and the values are presented as mean ± SD. P-values were calculated using Student’s t-test to compare each compound candidate with vehicle control. *P < 0.05.
Viral load reduction assay was performed for the evaluation of antiviral activity as we described previously ([34]). Briefly, SARS-CoV-2-infected VeroE6 cells were treated with different concentrations of compounds or dimethyl sulfoxide (DMSO) control. Then, cell culture supernatant samples were collected at 48 h post-inoculation (hpi) for qRT-PCR analysis of viral RNA load. Culture supernatant was lysed with buffer AVL and then extracted for total RNA with the QIAamp viral RNA mini kit (Qiagen). qRT-PCR was used for quantitation of SARS-CoV-2 viral load using the QuantiNova Probe RT-PCR kit (Qiagen) with a LightCycler 480 Real-Time PCR System (Roche). […]
On the technique in general: Quantitative PCR measures a nucleic acid by following its amplification.

The next assay addresses SARS-CoV-2 M^pro (Severe acute respiratory syndrome coronavirus 2, UniProt P0DTD1). Put plainly: SARS-CoV-2 M^pro enzyme inhibition assay (FRET substrate). The class given is biochemical. The note with it: for IC50: 150 nM enzyme, 30 min preincubation, 25 µM substrate, mean ± SD.
For the next assay, the system named is SARS-CoV M^pro. To be noted: SARS-CoV M^pro ref 27; cited from earlier work.

In the case of `CC(C)(C)[C@H](NC(=O)C(F)(F)F)C(=O)N1C[C@H]2[C@@H]([C@H]1C(=O)N[C@H](C#N)C[C@@H]1CCNC1=O)C2(C)C` [PF-07321332, Nirmatrelvir], the “reduction in viral RNA load” value in the assay on SARS-CoV-2 amounted to 3.48 log10.
Take `COc1ccc(C[C@H](NC(=O)[C@H](C)NC(=O)OC(C)(C)C)C(=O)N[C@@H](C[C@@H]2CCNC2=O)C(=O)C(=O)Nc2cccc(C(C)=O)c2)cc1` [H94]: on SARS-CoV-2 M^pro, the IC50 turned out to be 24.8 ± 2.3 µM.
On the same count and under the same terms, with `COc1ccc(C[C@H](NC(=O)[C@H](CC(C)C)NC(=O)OC(C)(C)C)C(=O)N[C@@H](C[C@@H]2CCNC2=O)C(=O)C(=O)Nc2cccc(C(C)=O)c2)cc1` [H99] the figure was 9.9 ± 4.7 µM; with `COC[C@H](NC(=O)OC(C)(C)C)C(=O)N[C@@H](Cc1ccc(OC)cc1)C(=O)N[C@@H](C[C@@H]1CCNC1=O)C(=O)C(=O)Nc1cccc(C(C)=O)c1` [H137], 28.9 ± 3.8 µM.
Take `COc1ccc(C[C@H](NC(=O)[C@H](C)NC(=O)c2cnc(-c3ccc(C(C)=O)cc3)s2)C(=O)N[C@@H](C[C@@H]2CCNC2=O)C(=O)C(=O)Nc2cccc(C(C)=O)c2)cc1` [H96]: half-maximal inhibition against SARS-CoV-2 M^pro (IC50) was put at 9.4 ± 3 µM. Moreover, the “increase in M^pro inhibitory potency compared to compound 17” value at SARS-CoV-2 M^pro (vs compound 17) was above 10 fold.
Turning to `CC(C)C[C@H](NC(=O)OCc1ccccc1)C(=O)N[C@@H](C[C@@H]1CCNC1=O)C(O)S(=O)(=O)[O-].[Na+]` (some centres unmarked) [GC376], in the assay on SARS-CoV-2, the “reduction in viral RNA load” value is given as 3.93 log10.
Turning to `COc1ccc(C[C@H](NC(=O)[C@@H](NC(=O)OC(C)(C)C)C(C)(C)C)C(=O)N[C@@H](C[C@@H]2CCNC2=O)C(=O)C(=O)Nc2cccc(C(C)=O)c2)cc1` [H97], at SARS-CoV-2 M^pro, half-maximal inhibition (IC50) was put at 6.3 ± 2.7 µM.
On the same count and under the same terms, the same measure for `CC(=O)c1cccc(NC(=O)C(=O)[C@H](C[C@@H]2CCNC2=O)NC(=O)[C@H](CC(C)C)NC(=O)[C@@H](NC(=O)OC(C)(C)C)C(C)(C)C)c1` [H101]: 3.8 ± 0.4 µM.
`COC(=O)[C@H](C[C@@H]1CCNC1=O)NC(=O)OC(C)(C)C` [compound 3]: the IC50 with SARS-CoV M^pro was 0.3 µM.
At SARS-CoV-2 M^pro, `COc1ccc(C[C@H](NC(=O)[C@@H](NC(=O)OC(C)(C)C)C(C)C)C(=O)N[C@@H](C[C@@H]2CCNC2=O)C(=O)C(=O)Nc2cccc(C(C)=O)c2)cc1` [H98] gave an IC50 of 8.7 ± 2.5 µM.
